Test results published in patent publication US8338420B1, “Treatment of Parkinson's disease and enhancement of dopamine signal using PDE 10 inhibitor” (Mitsubishi Tanabe Pharma Corporation, priority 2002, dated 2012).

Tested on: rat 6-hydroxydopamine model
Assay: Rat 6-hydroxydopamine model, L-dopa induced rotational behaviors
Type: in vivo, SD rat
Settings: 1 mg/kg, i.v.; L-dopa 10 mg/kg i.p. + benserazide 2.5 mg/kg i.p.
Protocol: Preparation of rat 6-hydroxydopamine model According to the method described in the literature (Koga et al., European Journal of Pharmacology, vol. 408, pp. 249-255, 2000), 6-hydroxydopamine (6-OHDA) was administered in the rat's brain, to cause lesion in the substantia nigra of the brain, to thereby cause motor disability. As the rats, male SD (Sprague Dawley) rats (about 9 to 10 week old) were used. To these rats was administered desipramine (available from Sigma) (25 mg/kg, i.p.). Desipramine was used after being dissolved in distilled water to be 25 mg/ml. […]
One week after administration of 6-OHDA, apomorphine was administered, and rotational behaviors were confirmed to appear due to the lesion of substantia nigra by 6-OHDA in one hemisphere. […] Turnings were counted in every 5-minute interval, until rotational behaviors disappeared or until an event was repeated twice in which the number of turnings became 5 or less during the 5-minute interval. […]
To the model rat prepared in the above (1) (2 weeks after administration of apomorphine), L-dopa and benserazide (dopa decarboxylase inhibitor which inhibits degradation of L-dopa) were administered, and numbers of tunings were measured. […]
L-dopa was administered 30 minutes after benserazide administration, and turnings were counted after L-dopa administration. […]

With `COc1ccc(-c2cc(N3CCCC3)nc(/C=C/c3nc(-n4ccnc4)c4ccccc4n3)n2)cc1OC` [Compound A, 2-{(E)-2-[4-(1-imidazolyl)-quinazolin-2-yl]}ethenyl-4-(3,4-dimethoxy)phenyl-6-(pyrrolidin-1-yl)pyrimidine] the “L-dopa induced rotational behaviors, total number of turnings” value was “tended to increase” and the “duration of L-dopa induced rotational behaviors” value was “significantly prolonged”.
